From US4325951A, “1-Oxadethiacephalosporin derivatives and antibacterial use thereof” (Meiji Seika Kaisha, Ltd., priority 1979, dated 1982) come the findings set out here.

One assay relates to Pro. mirabilis GN 79. Description: antibacterial spectrum, MIC (Table 2). The assay is classed as cell-based. As to conditions: Proteus mirabilis, GN79, nutrient agar, 37° C., 20 hours.
Assay [1] concerns Escherichia coli No. 29. Description: therapeutic treatment of bacterial infection in mice, ED50. As to conditions: male ICR mice; E. coli No. 29 intraperitoneally, 2.0×10^7 cells per mouse; subcutaneous injection 30 minutes after inoculation. Format: in vivo. As to the method: Thirty minutes after the inoculation, the mice were each treated by subcutaneous injection of 0.2 ml of a solution of the test compound in physiological saline. In this way, the ED50 value of the test compounds was determined. Cefoxitin and the 6059-S Compound (di-Na salt) were also tested in the same manner as above, for the comparison purpose.

The test system of another assay is Sta. aureus Smith (I). Put plainly: antibacterial spectrum, MIC (Table 2). As to conditions: Staphylococcus aureus, nutrient agar, 37° C., 20 hours. The assay is classed as cell-based.
For a further assay, the system named is Ps. aeruginosa MB-3829. Description: antibacterial spectrum, MIC (Table 2). The assay is classed as cell-based. As to conditions: Pseudomonas aeruginosa.
In a further assay the test system is E. coli W 3630 RGN 823. Description: microbe, parasite or virus in culture. The assay is classed as cell-based. Particulars: Escherichia coli, W3630RGN823, 20 h.
Another assay deals with Escherichia coli GN. Put plainly: Minimum Inhibitory Concentration "in vitro" (Table 1). Format: cell-based.
In a further assay the test system is Pro. morganii 1510. Put plainly: antibacterial spectrum, MIC (Table 2). As to conditions: Morganella morganii, nutrient agar, 37° C., 20 hours. The assay is classed as cell-based.
A further assay concerns E. coli W 3630 RGN 238. Description: microbe, parasite or virus in culture. Particulars: Escherichia coli, W3630RGN238, 20 h. Format: cell-based.
Assay [2] relates to Escherichia coli No. 29. Put plainly: Minimum Inhibitory Concentration "in vitro" (Table 1). The assay is classed as cell-based.
Another assay relates to Kleb. pneumoniae GN 69. Put plainly: antibacterial spectrum, MIC (Table 2). As to conditions: Klebsiella pneumoniae, GN69, nutrient agar, 37° C., 20 hours. The assay is classed as cell-based.
A further assay relates to Sta. aureus 209P JC-1. Put plainly: antibacterial spectrum, MIC (Table 2). Format: cell-based. As to conditions: Staphylococcus aureus, nutrient agar, 37° C., 20 hours.
The subject of a further assay is Ps. cepacia M-0527. Description: antibacterial spectrum, MIC (Table 2). Format: cell-based. Particulars: Burkholderia cepacia, M0527, nutrient agar, 37° C., 20 hours.
Assay [3] relates to Shigella dysenteriae Shigae. Put plainly: microbe, parasite or virus in culture. The assay is classed as cell-based. As to conditions: 20 h.
The subject of a further assay is E. coli ML 1410. Description: antibacterial spectrum, MIC (Table 2). Format: cell-based. Particulars: Escherichia coli, ML1410, nutrient agar, 37° C., 20 hours.
For another assay, the system named is B. subtilis ATCC 6633. Description: antibacterial spectrum, MIC (Table 2). Particulars: Bacillus subtilis, ATCC6633, nutrient agar, 37° C., 20 hours. Format: cell-based.
Another assay deals with Citro freundii GN 346/16. Description: antibacterial spectrum, MIC (Table 2). As to conditions: nutrient agar, 37° C., 20 hours. Format: cell-based.
The next assay deals with Pro. vulgaris GN 76. Put plainly: antibacterial spectrum, MIC (Table 2). As to conditions: Proteus vulgaris, GN76, nutrient agar, 37° C., 20 hours. The assay is classed as cell-based.
In another assay the test system is Sal. typhimurium LT-2. Put plainly: antibacterial spectrum, MIC (Table 2). The assay is classed as cell-based. Particulars: Salmonella enterica, nutrient agar, 37° C., 20 hours.

In brackets after ≈: the same amount, converted by molar mass. Where a name gives a salt, the structure may show the parent alone. Read-outs that look alike come from different tables or passages of the source.

In the case of `CO[C@@]1(NC(=O)CSC[C@@H](N)C(=O)O)C(=O)N2C(C(=O)O)=C(CSc3nnnn3C)CO[C@@H]21` [Example 1, 7β-[(2D-2-amino-2-carboxy)ethylthioacetoamido]-7α-methoxy-3-[(1-methyl-1H-tetrazol-5-yl)thiomethyl]-1-oxadethia-3-cephem-4-carboxylic acid sodium salt], the MIC in the assay on Pro. mirabilis GN 79 was 0.2 mg/L; against Sta. aureus Smith (I), 1.56 mg/L; with Ps. aeruginosa MB-3829 (MB3829, Ps. aeruginosa MB-3829, nutrient agar, 37° C., 20 hours, read-out: MIC), 12.5 mg/L; with E. coli W 3630 RGN 823, not above 0.025 mg/L; against Escherichia coli GN it was 0.39 mg/L; with Pro. morganii 1510, 0.78 mg/L. In addition, the MIC against E. coli W 3630 RGN 238 was determined as 0.39 mg/L; against Escherichia coli No. 29 [2] it was 0.39 mg/L; against Kleb. pneumoniae GN 69, 0.78 mg/L; in the assay with Sta. aureus 209P JC-1 it was 3.13 mg/L; with Ps. cepacia M-0527, 3.13 mg/L; in assay [3], 0.2 mg/L. Moreover, the MIC in the assay on E. coli ML 1410 was 0.39 mg/L; in the assay on B. subtilis ATCC 6633, 1.56 mg/L; against Citro freundii GN 346/16, 0.78 mg/L; against Pro. vulgaris GN 76, 0.39 mg/L; in the assay on Sal. typhimurium LT-2, 0.39 mg/L. Also, the ED50 value in the assay on Escherichia coli No. 29 [1] is reported as 0.03 mg/mouse.

Take `CO[C@@]1(NC(=O)CSC[C@@H](N)C(=O)O)C(=O)N2C(C(=O)[O-])=C(C[n+]3ccc(C(N)=O)cc3)CO[C@@H]21` [Example 3, 7β-[(2D-2-Amino-2-carboxy)ethylthioacetoamido]-7α-methoxy-3-[(4-carbamoylpyridinium)methyl]-1-oxadethia-3-cephem-4-carboxylic acid]: the MIC against Escherichia coli GN and against Escherichia coli No. 29 [2] was 0.78 mg/L (≈ 1.53 µM) throughout.

Consider `CO[C@@]1(NC(=O)C(C(=O)O)c2ccc(O)cc2)C(=O)N2C(C(=O)O)=C(CSc3nnnn3C)CO[C@@H]21` (stereo partly drawn) [6059-S Compound, 7β-(α-p-hydroxyphenyl-α-carboxyacetoamido)-7α-methoxy-3-[(1-methyl-1H-tetrazole-5-yl)thiomethyl]-1-oxadethia-3-cephem-4-carboxylic acid, reference compound], for which the MIC against Pro. mirabilis GN 79 is 0.39 mg/L (≈ 0.749 µM); in the assay on Sta. aureus Smith (I), 6.25 mg/L (≈ 12 µM); in the assay on Ps. aeruginosa MB-3829 (MB3829, 20 h), 3.13 mg/L (≈ 6.01 µM); with E. coli W 3630 RGN 823 it was 0.05 mg/L (≈ 0.0961 µM); in the assay with Pro. morganii 1510, 0.39 mg/L (≈ 0.749 µM); in the assay with E. coli W 3630 RGN 238, 0.2 mg/L (≈ 0.384 µM). Moreover, the MIC against Kleb. pneumoniae GN 69 worked out at 0.39 mg/L (≈ 0.749 µM); against Sta. aureus 209P JC-1, 6.25 mg/L (≈ 12 µM); against Ps. cepacia M-0527, 6.25 mg/L (≈ 12 µM); in [3], 0.1 mg/L (≈ 0.192 µM); in the assay with E. coli ML 1410 it was 0.1 mg/L (≈ 0.192 µM); with B. subtilis ATCC 6633, 25 mg/L (≈ 48 µM). The values for the MIC with Citro freundii GN 346/16, in the assay on Pro. vulgaris GN 76 and against Sal. typhimurium LT-2 were 0.1 mg/L (≈ 0.192 µM), 0.39 mg/L (≈ 0.749 µM) and 0.2 mg/L (≈ 0.384 µM), respectively. In addition, the ED50 value in the assay on Escherichia coli No. 29 [1] amounted to 0.16 mg/mouse.

In the assay with Escherichia coli No. 29 [1], `CO[C@@]1(NC(=O)Cc2cccs2)C(=O)N2C(C(=O)O)=C(COC(N)=O)CS[C@@H]21` [Cefoxitin, reference compound] yielded an ED50 value of 0.50 mg/mouse.

In the assay with Escherichia coli No. 29 [1], `Cn1nnnc1SCC1=C(C(=O)O)N2C(=O)[C@@H](NC(=O)CSC[C@@H](N)C(=O)O)[C@H]2OC1` [Example 2, 7β-[(2D-2-Amino-2-carboxy)ethylthioacetoamido]-3-[(1-methyl-1H-tetrazol-5-yl)thiomethyl]-1-oxadethia-3-cephem-4-carboxylic acid sodium salt] displayed an ED50 value of 0.05 mg/mouse. In addition, the MIC was found to be 3.13 mg/L in the assay on Escherichia coli GN and 0.39 mg/L in the assay on Escherichia coli No. 29 [2].
